Experiment [1] has as its target Recombinant PRC2 (EZH2-Y641F) (Homo sapiens, UniProt Q15910, Y641F). Briefly: In vitro methyltransferase activity test (LANCE Ultra).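 Note: compounds tested as an 8-point threefold dilution series, fluorescence read after 1 h detection step at room temperature, IC50 derived from a four-parameter curve fit.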 Conditions: EZH2 Y641F IC50, Recombinant PRC2 (EZH2-Y641F), LANCE Ultra detection, 3 hours reaction. (In general: In TR-FRET formats the signal depends on donor and acceptor labels being close together.)
Description: In Vitro Methyltransferase Activity Test
Recombinant PRC2 (EZH2-Y641F) was purchased from Active motif, S-adenosyl-methionine (SAM) and Poly-L-lysine (PLL) were purchased from Sigma-Aldrich, H3(1-50)K27mel polypeptide was purchased from Cisbio. LANCEUltra system (Perkinelmer) was used for detection. In the enzyme activity test, a compound to be tested was 1:3 diluted for 8 gradient points, added into a reaction plate, and then added 100 ng recombinant enzyme. And then a buffer [20 mM Tris pH8.5, 2 mM MgCl2, 0.01% Tween-20, 1 mM TCEP] containing 2.5 M SAM/250 nM H3(1-50)K27mel premixture was added to conduct an enzyme reaction at room tempreture. After reacted for 3 hours, a dection solution containing premixed PLL, detection antibody and Ulight was added, reacted for 1 h at RT, then fluorescence was read on Tecan infinite pro. IC50s were calculated by four-factor model fitting in a XLfit software.
The test system of a further experiment is Pfeiffer cells. Kind of experiment: Cell proliferation test (cell counting kit-8, 6 days). It counts as cell-based. The following applies: Homo sapiens, Pfeiffer, 144 h, 6 days' growth. The procedure:
Cells were harvested by centrifuge and densities were determined using a CounterStar cell counter. Appropriate number of cells were plated in a 96-well culture plate and incubated overnight. Compounds to be tested were 1:3 diluted for 8 gradient points and added into corresponding wells. After 6 days' growth, cell counting kit-8 (Dojindo) was used to detect cell viability and absorbance values were read on Tecan infinite pro.
On the technique in general: Tetrazolium assays rely on reduction of a dye to a coloured formazan, in cell work by metabolically active cells.

Here are results for 17 compounds from patent US20200262813A1, “1,5,7-TRISUBSTITUTED ISOQUINOLINE DERIVATIVES, PREPARATION THEREOF, AND USE THEREOF IN MEDICINES” (SHANGHAI HAIYAN PHARMACEUTICAL TECHNOLOGY CO., LTD., priority 2016, published 2020).

Recombinant PRC2 (EZH2-Y641F), sequence (Q15910 whole entry Y641F): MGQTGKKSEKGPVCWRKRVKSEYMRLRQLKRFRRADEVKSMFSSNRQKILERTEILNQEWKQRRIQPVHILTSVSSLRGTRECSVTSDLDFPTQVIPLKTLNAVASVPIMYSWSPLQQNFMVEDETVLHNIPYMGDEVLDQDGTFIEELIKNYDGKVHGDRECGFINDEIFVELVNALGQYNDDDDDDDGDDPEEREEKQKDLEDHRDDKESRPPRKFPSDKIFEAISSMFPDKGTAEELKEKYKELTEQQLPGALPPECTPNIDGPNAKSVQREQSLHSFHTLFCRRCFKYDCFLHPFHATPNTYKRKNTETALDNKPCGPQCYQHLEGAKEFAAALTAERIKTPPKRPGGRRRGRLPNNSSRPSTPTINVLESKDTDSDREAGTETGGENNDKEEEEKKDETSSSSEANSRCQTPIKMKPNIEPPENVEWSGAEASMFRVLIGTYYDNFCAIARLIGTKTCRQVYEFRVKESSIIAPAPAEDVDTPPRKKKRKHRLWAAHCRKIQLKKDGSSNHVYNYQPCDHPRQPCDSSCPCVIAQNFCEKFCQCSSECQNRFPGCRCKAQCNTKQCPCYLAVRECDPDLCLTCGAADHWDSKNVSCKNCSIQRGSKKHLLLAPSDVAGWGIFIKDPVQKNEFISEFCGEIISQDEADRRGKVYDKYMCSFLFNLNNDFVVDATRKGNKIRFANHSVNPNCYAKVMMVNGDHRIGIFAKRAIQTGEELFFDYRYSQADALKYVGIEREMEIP
Recombinant PRC2 (EZH2-Y641F), sequence (O75530 whole entry partner): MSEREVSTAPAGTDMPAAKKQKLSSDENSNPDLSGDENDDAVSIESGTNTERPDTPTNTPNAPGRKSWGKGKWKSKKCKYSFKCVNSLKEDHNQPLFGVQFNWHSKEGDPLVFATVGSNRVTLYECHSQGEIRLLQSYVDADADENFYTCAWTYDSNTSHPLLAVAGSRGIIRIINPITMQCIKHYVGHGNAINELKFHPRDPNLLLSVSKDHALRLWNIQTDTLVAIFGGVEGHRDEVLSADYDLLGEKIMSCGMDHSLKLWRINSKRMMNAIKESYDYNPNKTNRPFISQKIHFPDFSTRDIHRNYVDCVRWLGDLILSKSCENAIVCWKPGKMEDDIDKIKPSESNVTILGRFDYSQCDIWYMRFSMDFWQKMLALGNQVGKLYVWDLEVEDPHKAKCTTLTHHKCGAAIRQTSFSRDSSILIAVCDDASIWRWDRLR
Recombinant PRC2 (EZH2-Y641F), sequence (Q15022 whole entry partner): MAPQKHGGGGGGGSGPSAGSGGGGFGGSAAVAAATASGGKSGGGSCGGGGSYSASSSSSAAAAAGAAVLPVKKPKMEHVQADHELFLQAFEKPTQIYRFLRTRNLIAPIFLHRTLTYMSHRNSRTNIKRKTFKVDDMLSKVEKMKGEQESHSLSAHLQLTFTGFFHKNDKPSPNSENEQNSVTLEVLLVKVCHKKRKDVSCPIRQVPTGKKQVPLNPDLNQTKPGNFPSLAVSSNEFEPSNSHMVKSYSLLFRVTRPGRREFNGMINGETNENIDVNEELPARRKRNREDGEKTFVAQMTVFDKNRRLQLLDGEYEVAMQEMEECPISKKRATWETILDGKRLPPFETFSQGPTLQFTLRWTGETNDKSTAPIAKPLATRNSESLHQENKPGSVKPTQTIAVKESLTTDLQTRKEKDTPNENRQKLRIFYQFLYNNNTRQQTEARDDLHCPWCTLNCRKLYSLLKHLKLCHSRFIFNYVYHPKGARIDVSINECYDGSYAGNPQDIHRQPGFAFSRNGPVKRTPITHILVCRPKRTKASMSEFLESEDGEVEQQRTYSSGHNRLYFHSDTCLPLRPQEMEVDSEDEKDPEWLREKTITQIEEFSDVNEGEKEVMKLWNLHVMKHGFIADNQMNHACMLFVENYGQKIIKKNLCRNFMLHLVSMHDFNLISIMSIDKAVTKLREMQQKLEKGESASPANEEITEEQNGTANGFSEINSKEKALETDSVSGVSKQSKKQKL
Recombinant PRC2 (EZH2-Y641F), sequence (Q09028 whole entry partner): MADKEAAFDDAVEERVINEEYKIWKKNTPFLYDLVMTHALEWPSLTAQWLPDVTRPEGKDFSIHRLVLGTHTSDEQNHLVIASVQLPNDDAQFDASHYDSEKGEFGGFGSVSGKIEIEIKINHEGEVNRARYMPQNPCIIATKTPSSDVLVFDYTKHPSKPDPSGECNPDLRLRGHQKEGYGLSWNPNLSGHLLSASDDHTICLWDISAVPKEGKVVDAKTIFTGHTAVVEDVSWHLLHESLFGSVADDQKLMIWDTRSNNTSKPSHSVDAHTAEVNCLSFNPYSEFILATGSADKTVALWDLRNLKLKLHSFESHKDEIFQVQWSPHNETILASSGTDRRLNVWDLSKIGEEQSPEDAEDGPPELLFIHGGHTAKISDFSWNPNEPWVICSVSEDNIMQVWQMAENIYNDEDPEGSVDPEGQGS
Recombinant PRC2 (EZH2-Y641F), sequence (Q6ZN18 whole entry partner): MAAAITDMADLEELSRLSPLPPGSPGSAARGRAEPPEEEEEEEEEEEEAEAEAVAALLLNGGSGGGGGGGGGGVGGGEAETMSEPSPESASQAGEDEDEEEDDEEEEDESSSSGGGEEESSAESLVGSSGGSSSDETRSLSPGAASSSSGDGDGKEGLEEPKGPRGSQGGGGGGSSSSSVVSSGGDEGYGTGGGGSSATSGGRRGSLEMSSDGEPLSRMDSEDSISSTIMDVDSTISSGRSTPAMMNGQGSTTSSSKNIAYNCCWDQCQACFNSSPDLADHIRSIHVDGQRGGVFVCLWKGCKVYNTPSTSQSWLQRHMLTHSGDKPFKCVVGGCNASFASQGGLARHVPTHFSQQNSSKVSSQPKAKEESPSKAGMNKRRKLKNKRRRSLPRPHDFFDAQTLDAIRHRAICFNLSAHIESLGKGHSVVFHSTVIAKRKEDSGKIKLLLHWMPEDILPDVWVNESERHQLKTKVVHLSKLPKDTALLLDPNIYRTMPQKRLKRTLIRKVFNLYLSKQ

Take `CCOc1cc(N(CC)C2CCC(N(C)C)CC2)c2ccnc(NCc3c(C)cc(C)[nH]c3=O)c2n1` (stereo not shown) [Compound Z-222, 3-((4-((4-(dimethylamino)cyclohexyl) (ethyl)amino)-2-ethoxy-1,7-naphthyridin-8-ylamino)methyl)-4,6-dimethyl-2(1H)-one]: the figures for the IC50 (in experiment [1]; with Pfeiffer cells) were 0.143 µM and 0.484 µM, respectively.
Take `CCN(c1cc(-c2ccc(CN(C)C)cc2)cc2c(NCc3c(C)cc(C)[nH]c3=O)nccc12)C1CCC(N(C)C)CC1` (stereo not shown) [Compound Z-45]: the figures for the IC50 (in experiment [1]; in the experiment on Pfeiffer cells) were 0.038 µM and 0.599 µM, respectively.
The like results for `CCN(c1cc(-c2cnc(N3CCN(C)CC3)nc2)cc2c(NCc3c(C)cc(C)[nH]c3=O)nccc12)C1CCC(O)CC1` (stereo not shown) [Compound Z-89] were, in that order, 0.043 µM and 0.401 µM.
As for `CCN(c1cc(-c2cncnc2)cc2c(NCc3c(C)cc(C)[nH]c3=O)nccc12)C1CCC(N(C)C)CC1` (stereo not shown) [Compound Z-65], the values for the half-inhibitory concentration (IC50) (in experiment [1]; in the experiment with Pfeiffer cells) were 0.052 µM and 0.972 µM, respectively.
As for `CCN(c1c(F)c(-c2ccc(N3CCN(C)CC3)nc2)cc2c(NCc3c(C)cc(C)[nH]c3=O)nccc12)C1CCOCC1` [Compound Z-224, 3-((5-(ethyl(tetrahydro-2H-pyran-4-yl)amino)-6-fluoro-7-(6-(4-methylpiperazin-1-yl)pyridin-3-yl)isoquinolin-1-ylamino)methyl)-4,6-dimethyl-2(1H)-one], the values for the IC50 (in experiment [1]; in the experiment with Pfeiffer cells) were 0.36 µM and 0.605 µM, respectively.
As to `CCN(c1cc(-c2cnc(CN3CCN(C)CC3)c(F)c2)cc2c(NCc3c(C)cc(C)[nH]c3=O)nccc12)C1CCOCC1` [Compound Z-116], the half-maximal inhibitory concentration (IC50) in experiment [1] worked out at 0.041 µM; in the experiment on Pfeiffer cells it was 0.525 µM.
`CCN(c1cc(N(C)c2cccnc2)cc2c(NCc3c(C)cc(C)[nH]c3=O)nccc12)C1CCC(N(C)C)CC1` (stereo not shown) [Compound Z-186]: the half-inhibitory concentration (IC50) in experiment [1] was 0.067 µM; in the experiment with Pfeiffer cells, 0.251 µM.
Turning to `CCN(c1cc(-c2cnc(CN3CCN(C)CC3)nc2)cc2c(NCc3c(C)cc(C)[nH]c3=O)nccc12)C1CCOCC1` [Compound Z-115], the IC50 in experiment [1] was 0.047 µM; in the experiment with Pfeiffer cells, 0.706 µM.
For `CCN(c1cc(-c2ccc(CN3CCN(C(C)C)CC3)nc2)cc2c(NCc3c(C)cc(C)[nH]c3=O)nccc12)C1CCOCC1` [Compound Z-112] the same measures were 0.096 µM and 0.595 µM.
Take `CCN(c1cc(-c2ccc(CN3CCN(C)CC3)nc2)cc2c(NCc3c(C)cc(C)[nH]c3=O)nccc12)C1CCOCC1` [Compound Z-118]: the IC50 was determined as 0.085 µM in experiment [1] and 0.973 µM with Pfeiffer cells.
On to `CCN(c1cc(C2=CCN(C)CC2)cc2c(NCc3c(C)cc(C)[nH]c3=O)nccc12)C1CCC(O)CC1` (stereo not shown) [Compound Z-91], for which the values for the IC50 (in experiment [1]; in the experiment with Pfeiffer cells) were 0.075 µM and 0.291 µM, respectively.
Regarding `CCN(c1cc(-c2ccncc2)cc2c(NCc3c(C)cc(C)[nH]c3=O)nccc12)[C@H]1CC[C@H](N(C)C)CC1` [Compound Z-73], the 50% inhibitory concentration (IC50) in experiment [1] stood at 0.15 µM; in the experiment with Pfeiffer cells, 0.593 µM.
For `CCN(c1cc(Cl)cc2c(NCc3c(C)cc(C)[nH]c3=O)nccc12)[C@H]1CC[C@@H](N(C)C)CC1` [Compound Z-136] the same measures were 0.049 µM and 0.465 µM.
As to `CCN(c1cc(-c2ccc(CN3CCN(C)CC3)nc2)cc2c(NCc3c(C)cc(C)[nH]c3=O)nccc12)C1CCC(O)CC1` (stereo not shown) [Compound Z-196], the IC50 in experiment [1] is 0.016 µM; in the experiment on Pfeiffer cells, 0.583 µM.
For `CCN(c1cc(-c2cccnc2)cc2c(NCc3c(C)cc(C)[nH]c3=O)nccc12)C1CCC(O)CC1` (stereo not shown) [Compound Z-85], the IC50 in experiment [1] worked out at 0.269 µM; in the experiment on Pfeiffer cells, 0.521 µM.
For `CCN(c1cc(-c2ccc(N3CCN(C)CC3)nc2)cc2c(NCc3c(C)cc(C)[nH]c3=O)nccc12)C1CCN(C2CC2)CC1` [Compound Z-74] the same measures were 0.326 µM and 0.799 µM.
As to `CCN(c1cc(-c2cnc(CN3CCOCC3)nc2)cc2c(NCc3c(C)cc(C)[nH]c3=O)nccc12)C1CCOCC1` [Compound Z-121], the IC50 in experiment [1] is 0.474 µM; in the experiment with Pfeiffer cells, 0.646 µM.

As a reminder, the IC50 is the concentration needed to halve the response being measured.
